Measurements: patent publication US8471015B2, “Process for producing a green fluorescent protein comprising coelenteramide or an analog thereof” (JNC Corporation, priority 2009, dated 2013)
Like-named read-outs stand apart in the source and are kept apart here.

Tests used:
apoaequorin = biological target: T1, apoaequorin (Aequorea victoria, UniProt P07164); assay type: biochemical
T1 construct: OmpA signal peptide (N, cleaved yes); made in house; host or cells: Escherichia coli strain WA802
Method: Apoaequorin (0.5 mg, 22 nmol) was mixed with 10 μl of coelenteramide (1.2 μg/μl, 29 nmol, in anhydrous methanol) in 1 ml of 50 mM Tris-HCl (pH 7.6) containing 10 mM CaCl2 and 1 mM DTT. […] Subsequently, syn-BFP was treated at 4° C., 5,000×g for 20 minutes using centrifugal concentrator Vivaspin 2 (10,000 MWCO, Sartorius AG, Germany) to concentrate the mixture to 0.1 ml.
Regarding the production of synthetic gFP (syn-gFP) from apoaequorin and coelenteramide, apoaequorin (0.5 mg, 22 nmol) was mixed with 10 μl of coelenteramide (1.2 μg/μl, 29 nmol, in anhydrous methanol) in 1 ml of 50 mM Tris-HCl (pH 7.6) containing 10 mM EDTA and 1 mM DTT. […]
Absorption spectra were measured at 25° C. with a Jasco (Tokyo, Japan) V-560 spectrophotometer (bandwidth: 0.5 nm, response, medium; scan speed, 100 nm/min.) using a quartz cuvette (10 mm light path). Also, fluorescence spectra were measured on a Jasco FP-6500 fluorescence spectrophotometer (emission/excitation bandwidth: 3 nm, response: 0.5 sec., scan speed: 1000 nm/min.).

T1 sequence (P07164 other isoform, or with tags, fused parts or gaps with the stated changes): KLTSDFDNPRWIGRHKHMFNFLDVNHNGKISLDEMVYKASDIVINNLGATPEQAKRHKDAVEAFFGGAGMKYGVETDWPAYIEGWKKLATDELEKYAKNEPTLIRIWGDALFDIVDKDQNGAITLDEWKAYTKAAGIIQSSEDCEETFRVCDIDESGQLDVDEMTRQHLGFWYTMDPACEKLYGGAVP

| Structure (SMILES) | Fluorescence intensity (rlu) (excited at 332 nm) (apoaequorin; 10 mM Ca^2+ (Imax, 465 nm), +DTT, 0 hr) | Fluorescence intensity (rlu) (excited at 332 nm) (apoaequorin; 10 mM Ca^2+ (Imax, 465 nm), +DTT, 0.5 hr) | Fluorescence intensity (rlu) (excited at 332 nm) (apoaequorin; 10 mM Ca^2+ (Imax, 465 nm), +DTT, 16 hrs) | Fluorescence intensity (rlu) (excited at 332 nm) (apoaequorin; 10 mM Ca^2+ (Imax, 465 nm), -DTT series, then +DTT, 24 hrs) | Fluorescence intensity (rlu) (excited at 332 nm) (apoaequorin; 10 mM Ca^2+ (Imax, 465 nm), -DTT, 0 hr) | Fluorescence intensity (rlu) (excited at 332 nm) (apoaequorin; 10 mM Ca^2+ (Imax, 465 nm), -DTT, 16 hrs) | Fluorescence intensity (rlu) (excited at 332 nm) (apoaequorin; 10 mM EDTA (Imax, 469.5 nm), +DTT, 0 hr) | Fluorescence intensity (rlu) (excited at 332 nm) (apoaequorin; 10 mM EDTA (Imax, 469.5 nm), +DTT, 0.5 hr) | Fluorescence intensity (rlu) (excited at 332 nm) (apoaequorin; 10 mM EDTA (Imax, 469.5 nm), +DTT, 16 hrs) | Fluorescence intensity (rlu) (excited at 332 nm) (apoaequorin; 10 mM EDTA (Imax, 469.5 nm), -DTT series, then +DTT, 24 hrs) | Fluorescence intensity (rlu) (excited at 332 nm) (apoaequorin; 10 mM EDTA (Imax, 469.5 nm), -DTT, 0 hr) | Fluorescence intensity (rlu) (excited at 332 nm) (apoaequorin; 10 mM EDTA (Imax, 469.5 nm), -DTT, 16 hrs) | melting point |
| --- | --- | --- | --- | --- | --- | --- | --- | --- | --- | --- | --- | --- | --- |
| O=C(Cc1ccc(O)cc1)Nc1ncc(-c2ccc(O)cc2)nc1Cc1ccccc1 [Coelenteramide, coelenteramide] | 25.4 rlu | 28.4 rlu | 29.5 rlu | 22.0 rlu | 9.8 rlu | 11.3 rlu | 20.2 rlu | 22.7 rlu | 23.1 rlu | 24.3 rlu | 14.8 rlu | 18.7 rlu |  |
| COc1ccc(CC(=O)Nc2ncc(-c3ccc(OC)cc3)nc2Cc2ccccc2)cc1 [IV, coelenteramide dimethyl ether] |  |  |  |  |  |  |  |  |  |  |  |  | 189.5 to 191 °C |
